Data reported in publication PMC9481151, “Discovery of new symmetrical and asymmetrical nitrile-containing 1,4-dihydropyridine derivatives as dual kinases and P-glycoprotein inhibitors: synthesis, in vitro assays, and in silico studies” (Journal of Enzyme Inhibition and Medicinal Chemistry, 2022).

How the values were obtained:
[1] = test system: Escherichia coli; assay: Agar well diffusion method; settings: relative to ciprofloxacin
[2] = test system: LOX IMVI; assay: NCI single dose (10 µM) SRB screen; assay type: cell-based, human; settings: melanoma, 48 h
[3] = test system: MDA-MB-435; assay: NCI single dose (10 µM) SRB screen; assay type: cell-based, human; settings: melanoma, 48 h
[4] = test system: MALME-3M; assay: NCI single dose (10 µM) SRB screen; assay type: cell-based, human; settings: melanoma, 48 h
[5] = test system: RXF 393; assay: NCI single dose (10 µM) SRB screen; assay type: cell-based, human; settings: renal cancer, 48 h
[6] = test system: UO-31; assay: NCI single dose (10 µM) SRB screen; assay type: cell-based, human; settings: renal cancer, 48 h
[7] = test system: SW-620; assay: NCI single dose (10 µM) SRB screen; assay type: cell-based, human; settings: colon cancer, 48 h
[8] = test system: CAKI-1; assay: NCI single dose (10 µM) SRB screen; assay type: cell-based, human; settings: renal cancer, 48 h
[9] = test system: Staphylococcus aureus; assay: Agar well diffusion method; settings: relative to ciprofloxacin
[10] = test system: UACC-257; assay: NCI single dose (10 µM) SRB screen; assay type: cell-based, human; settings: melanoma, 48 h
[11] = test system: NCI-H322M; assay: NCI single dose (10 µM) SRB screen; assay type: cell-based; settings: non-small cell lung cancer, 48 h
[12] = test system: IGROV1; assay: NCI single dose (10 µM) SRB screen; assay type: cell-based, human; settings: ovarian cancer, 48 h
[13] = test system: M14; assay: NCI single dose (10 µM) SRB screen; assay type: cell-based, human; settings: melanoma, 48 h
[14] = test system: PC-3; assay: NCI single dose (10 µM) SRB screen; assay type: cell-based, human; settings: prostate cancer, 48 h
[15] = test system: Bacillus subtilis; assay: Agar well diffusion method; settings: relative to ciprofloxacin
[16] = test system: HOP-92; assay: NCI single dose (10 µM) SRB screen; assay type: cell-based, human; settings: non-small cell lung cancer, 48 h
[17] = test system: A549/ATCC; assay: NCI single dose (10 µM) SRB screen; assay type: cell-based, human; settings: non-small cell lung cancer, 48 h
[18] = test system: NCI-H23; assay: NCI single dose (10 µM) SRB screen; assay type: cell-based, human; settings: non-small cell lung cancer, 48 h
[19] = test system: NCI/ADR-RES; assay: NCI single dose (10 µM) SRB screen; assay type: cell-based, human; settings: ovarian cancer, 48 h
[20] = test system: TK-10; assay: NCI single dose (10 µM) SRB screen; assay type: cell-based, human; settings: renal cancer, 48 h
[21] = test system: Aspergillus flavus; assay: Agar well diffusion method; settings: relative to clotrimazole
[22] = test system: SR; assay: NCI single dose (10 µM) SRB screen; assay type: cell-based, human; settings: leukaemia, 48 h
[23] = test system: SF-268; assay: NCI single dose (10 µM) SRB screen; assay type: cell-based, human; settings: CNS cancer, 48 h
[24] = test system: COLO 205; assay: NCI single dose (10 µM) SRB screen; assay type: cell-based, human; settings: colon cancer, 48 h
[25] = test system: NCI-H226; assay: NCI single dose (10 µM) SRB screen; assay type: cell-based, human; settings: non-small cell lung cancer, 48 h
[26] = test system: OVCAR-4; assay: NCI single dose (10 µM) SRB screen; assay type: cell-based, human; settings: ovarian cancer, 48 h
[27] = test system: DU-145; assay: NCI single dose (10 µM) SRB screen; assay type: cell-based, human; settings: prostate cancer, 48 h
[28] = test system: SF-539; assay: NCI single dose (10 µM) SRB screen; assay type: cell-based, human; settings: CNS cancer, 48 h
[29] = test system: HS578T; assay: NCI single dose (10 µM) SRB screen; assay type: cell-based, human; settings: breast cancer, 48 h
[30] = test system: SK-MEL-28; assay: NCI single dose (10 µM) SRB screen; assay type: cell-based, human; settings: melanoma, 48 h
[31] = test system: T-47D; assay: NCI single dose (10 µM) SRB screen; assay type: cell-based, human; settings: breast cancer, 48 h
[32] = test system: OVCAR-3; assay: NCI single dose (10 µM) SRB screen; assay type: cell-based, human; settings: ovarian cancer, 48 h
[33] = test system: NCI 60 cancer cell lines; assay: NCI single dose (10 µM) SRB screen, mean over panel; assay type: cell-based, human; settings: mean over 60 cell lines, 48 h
[34] = test system: NCI-H522; assay: NCI single dose (10 µM) SRB screen; assay type: cell-based, human; settings: non-small cell lung cancer, 48 h
[35] = test system: Candida albicans; assay: Agar well diffusion method; settings: relative to clotrimazole
[36] = test system: BT-549; assay: NCI single dose (10 µM) SRB screen; assay type: cell-based, human; settings: breast cancer, 48 h
[37] = test system: MDA-MB-468; assay: NCI single dose (10 µM) SRB screen; assay type: cell-based, human; settings: breast cancer, 48 h
[38] = test system: 786-0; assay: NCI single dose (10 µM) SRB screen; assay type: cell-based, human; settings: renal cancer, 48 h
[39] = test system: OVCAR-8; assay: NCI single dose (10 µM) SRB screen; assay type: cell-based, human; settings: ovarian cancer, 48 h
[40] = test system: HCC-2998; assay: NCI single dose (10 µM) SRB screen; assay type: cell-based, human; settings: colon cancer, 48 h
[41] = test system: SF-295; assay: NCI single dose (10 µM) SRB screen; assay type: cell-based, human; settings: CNS cancer, 48 h
[42] = test system: U251; assay: NCI single dose (10 µM) SRB screen; assay type: cell-based, human; settings: CNS cancer, 48 h
[43] = test system: MOLT-4; assay: NCI single dose (10 µM) SRB screen; assay type: cell-based, human; settings: leukaemia, 48 h
[44] = test system: RPMI-8226; assay: NCI single dose (10 µM) SRB screen; assay type: cell-based, human; settings: leukaemia, 48 h
[45] = test system: SN12C; assay: NCI single dose (10 µM) SRB screen; assay type: cell-based, human; settings: renal cancer, 48 h
[46] = test system: SNB-75; assay: NCI single dose (10 µM) SRB screen; assay type: cell-based, human; settings: CNS cancer, 48 h
[47] = test system: HOP-62; assay: NCI single dose (10 µM) SRB screen; assay type: cell-based, human; settings: non-small cell lung cancer, 48 h
[48] = test system: UACC-62; assay: NCI single dose (10 µM) SRB screen; assay type: cell-based, human; settings: melanoma, 48 h
[49] = test system: HCT-15; assay: NCI single dose (10 µM) SRB screen; assay type: cell-based, human; settings: colon cancer, 48 h
[50] = test system: MDA-MB-231; assay: NCI single dose (10 µM) SRB screen; assay type: cell-based, human; settings: breast cancer, 48 h
[51] = test system: SNB-19; assay: NCI single dose (10 µM) SRB screen; assay type: cell-based, human; settings: CNS cancer, 48 h

CCOC(=O)C1=C(C)NC(C)=C(C(=O)OCc2ccccc2)C1c1cccc(C#N)c1 (racemic) [Compound 2l, (±)-3- Benzyl 5-ethyl 4-(3-cyanophenyl)-2,6-dimethyl-1,4-dihydropyridine-3,5-dicarboxylate]
% activity index, E. coli [1]: – (Values below 25 are of limited value and not shown as they refer either to inactive or non-diffusing compounds)
GI% LOX IMVI [2]: 64%
GI% MDA-MB-435 [3]: 110%
GI% MALME-3M [4]: 62%
GI% RXF 393 [5]: 55%
GI% UO-31 [6]: 56%
GI% SW-620 [7]: 70%
GI% CAKI-1 [8]: 67%
% activity index, S. aureus [9]: – (Values below 25 are of limited value and not shown as they refer either to inactive or non-diffusing compounds)
GI% UACC-257 [10]: 44%
GI% NCI-H322M [11]: 30%
GI% IGROV1 [12]: 57%
GI% M14 [13]: 85%
GI% PC-3 [14]: 66%
% activity index, B. subtilis [15]: – (Values below 25 are of limited value and not shown as they refer either to inactive or non-diffusing compounds)
GI% HOP-92 [16]: 49%
GI% A549/ATCC [17]: 65%
GI% NCI-H23 [18]: 37%
GI% NCI/ADR-RES [19]: 77%
GI% TK-10 [20]: 16%
% activity index, A. flavus [21]: – (Values below 25 are of limited value and not shown as they refer either to inactive or non-diffusing compounds)
GI% SR [22]: 78%
GI% SF-268 [23]: 42%
GI% COLO 205 [24]: 65%
GI% NCI-H226 [25]: 41%
GI% OVCAR-4 [26]: 28%
GI% DU-145 [27]: 42%
GI% SF-539 [28]: 76%
GI% HS578T [29]: 59%
GI% SK-MEL-28 [30]: 48%
GI% T-47D [31]: 72%
GI% OVCAR-3 [32]: 76%
Mean GI% [33]: 64%
GI% NCI-H522 [34]: 90%
% activity index, C. albicans [35]: – (Values below 25 are of limited value and not shown as they refer either to inactive or non-diffusing compounds)
GI% BT-549 [36]: 68%
GI% MDA-MB-468 [37]: 84%
GI% 786-0 [38]: 63%
GI% OVCAR-8 [39]: 51%
GI% HCC-2998 [40]: 29%
GI% SF-295 [41]: 84%
GI% U251 [42]: 58%
GI% MOLT-4 [43]: 68%
GI% RPMI-8226 [44]: 67%
GI% SN12C [45]: 63%
GI% SNB-75 [46]: 104%
GI% HOP-62 [47]: 54%
GI% UACC-62 [48]: 66%
GI% HCT-15 [49]: 77%
GI% MDA-MB-231 [50]: 47%
GI% SNB-19 [51]: 58%
